Laboratory results: US20180153840A1, “THE COMPOSITIONS OF GLYCEROL AND /OR NON-TOXIC AMINO ACIDS FOR INHIBITING AND DESTROYING BIOFILM, INCLUDING RELATED METHODS” (priority 2015, published 2018)
Entries after “also recorded” stand apart in the source; their conditions may differ.

Assays:
S. aureus biofilm [1] = test: Bacterial biofilm inhibition assay; assay type: cell-based, Staphylococcus aureus; conditions: for activation at 1 %: Staphylococcus aureus, read-out: Promote B Biofilm
Protocol: (§1) For fungal biofilm assays, all solutions were prepared in RPMI 1640 medium. All bacterial biofilm solutions were prepared in Trypic Soy Broth (TSB), supplemented with 1% glucose (henceforth referred to as TSB-G). All subsequent procedures were performed in a manner that maintained sterility. A solution of each amino acid to be tested was prepared in weight to volume concentrations ranging from 0.1-5.0%. Amino acids were also tested in combinations. Compound solutions were homogenized with gentle agitation in the dark (4° C., 24 hours) before use.
(§2) All biofilm assays were performed using 384-well non-tissue culture treated polystyrene plates. The fungal species tested are as follows: Candida albicans, Candida guilliermondii Candida parapsilosis, Candida glabrata, Candida tropicalis and Candida dubliniensis. The bacterial species tested are as follows: Staphylococcus aureus (standard wild type and methicillin-resistant strain USA300), Escherichia coli, Pseudomonas aeruginosa and Staphylococcus epidermidis.
(§3) Bacterial strains were streaked on Blood Agar plates (5% sheep blood in Tryptic Soy Broth) and incubated at 37° C. for 24 hours. A single colony from each strain to be tested was inoculated in a TSB broth and grown for 12 hours, at 37° C. with shaking (225 rpm).
(§4) For the bacterial biofilm inhibition assays, 1 μL of saturated overnight cell culture was added to either 80 μL of TSB-G, or TSB-G supplemented with the amino acid compound solution to be tested, in a 384-well plate. The cells were allowed to adhere to the plate for 60 minutes at 37° C. without shaking. The media was carefully aspirated and 80 μL of TSB-G, or TSB-G supplemented with the amino acid compound solution was added to the plate. The plate was further incubated for 24 hours at 37° C. without shaking. Media was carefully aspirated and the biofilm was measured for bacterial cell concentration by optical density at 600 nm. Eight or twelve replicates were performed for each tested condition and the reported values were normalized to the control (TSB-G media only).

S. aureus biofilm [2] = test: Bacterial biofilm disruption assay; assay type: cell-based; conditions: Staphylococcus aureus; for inhibition at 1 %: read-out: Reduce B Biofilm; for activation at 1 %: read-out: Promote B Biofilm
Protocol: as §1, §2, §3
(§5) For the bacterial biofilm disruption assays, 80 μL of TSB-G was added to the plate, along with 1 μL of overnight cell culture. The cells were allowed to adhere to the plate for 60 minutes at 37° C. without shaking. The media was carefully aspirated and 80 μL of TSB-G was added to the plate. The plate was further incubated for 24 hours at 37° C. without shaking. Media was carefully aspirated from the mature biofilm and 80 μL of TSB-G, or TSB-G supplemented with the amino acid to be tested, was gently added to the plate. The plate was further incubated for 24 hours at 37° C. without shaking. Media was aspirated and the biofilm was measured for bacterial cell concentration by optical density at 600 nm. Twelve replicates were performed for each tested condition and the reported values were normalized to the control (TSB-G media only).

bacterial biofilms = test: Bacterial biofilm assays (sustained inhibition and/or disruption); assay type: cell-based, Staphylococcus aureus; conditions: for anti-biofilm properties against bacterial biofilms: individually, about 0.1 to about 5.0% weight to volume (cystathionine 0.2%), at least one of the two assays; for support (improve) bacterial biofilm growth: based on the two assays (sustained inhibition and/or disruption)
Protocol: as §1, §2, §3, §4, §5

[3] = tested on: bacterial and fungal biofilms; test: In vitro testing on bacterial and fungal biofilms; assay type: cell-based; conditions: for neutral, effect on bacterial or fungal biofilms: both assays (sustained inhibition and disruption); for effect on bacterial and fungal biofilm (in words): in vitro
Protocol: as §1, §2
(§6) Fungal strains were streaked on Yeast Peptone Dextrose (YPD) agar plates and incubated at 30° C. for 48 hours. A single colony from each strain to be tested was inoculated into YPD broth and grown for 12 hours, at 30° C., shaking at 225 rpm. For the fungal biofilm inhibition assay, 1 μl of saturated overnight cell culture was added to either 80 μL of RPMI-1640 or RPMI-1640 supplemented with the amino acid compound solution to be tested, in a 384-well plate. The cells were allowed to adhere to the plate for 90 minutes at 37° C. with shaking (350 rpm). Loosely bound cells were washed once with phosphate buffered saline (PBS) and 80 ul of RPMI-1640, or RPMI-1640 supplemented with the amino acid compound solution was added to the plate. The plate was further incubated for 24 hours at 37° C. with shaking (350 rpm). Media was carefully aspirated and the biofilm was measured for fungal cell concentration by optical density at 600 nm. Twelve replicates were performed for each tested condition and the reported values were normalized to the control (RPMI-1640 media only).
(§7) For the fungal biofilm disruption assays, 80 μL of RPMI-1640 was added to the plate, along with 1 μL of overnight cell culture. The cells were allowed to adhere to the plate for 90 minutes at 37° C. with shaking (350 rpm). Loosely bound cells were washed once with PBS and 80 μL of RPMI-1640 was added to the plate. The plate was further incubated for 24 hours at 37° C. with shaking (350 rpm). Media was carefully aspirated from the mature biofilm and 80 μL of RPMI-1640, or RPMI-1640 supplemented with the amino acid compound solution to be tested, was gently added to the plate. The plate was further incubated for 24 hours at 37° C. with shaking (350 rpm). Media was carefully aspirated and the biofilm was measured for fungal cell concentration by optical density at 600 nm. Twelve replicates were performed for each tested condition and the reported values are normalized to the control (RPMI-1640 media only).
as §3
as §4, with “nm.” for “nm. Eight or twelve replicates were performed for each tested condition and the reported values were normalized to the control (TSB-G media only).”

fungal biofilms = test: Fungal biofilm assays (sustained inhibition and/or disruption); assay type: cell-based, Candida albicans; conditions: administered individually; at least one of the two assays (sustained inhibition and/or disruption)
Protocol: as §1, §2, §6, §7

[4] = sustained inhibition assay, S. aureus, 1% amino acid, p≤0.001
[5] = disruption assay, S. aureus, 1% amino acid, p≤0.001

Compound: NC(CCCC(=O)O)C(=O)O (centres unmarked) [2 Aminoadipic Acid, 2-aminoadipic acid]
- Reduce B Biofilm (S. aureus biofilm [1]; [4]): • (a single dot (●) signifies an effect in a range of about 10 to about 30% change)
- inhibition at 1 % (S. aureus biofilm [2]; [5]): 10 to 30%
- anti-biofilm properties against bacterial biofilms (bacterial biofilms): anti-biofilm properties against bacterial biofilms

Compound: CCC(N)C(=O)O (centres unmarked) [2 Aminobutyric Acid, 2-aminobutyric acid]
- neutral, effect on bacterial or fungal biofilms [3]: no effect on bacterial or fungal biofilms

Compound: C[C@H](N)C(=O)O [Alanine, L-alanine]
- activation at 1 % (S. aureus biofilm [2]; [5]): 10 to 30%
- support (improve) bacterial biofilm growth (bacterial biofilms): support (improve) bacterial biofilm growth
- effect on bacterial and fungal biofilm (in words) [3]: promote bacterial and fungal biofilm

Compound: N=C(N)NCCC[C@H](N)C(=O)O [Arginine, L-arginine]
- activation at 1 % (S. aureus biofilm [1]): 10 to 30%
- activation at 1 % (S. aureus biofilm [2]): 10 to 30%
- support (improve) bacterial biofilm growth (bacterial biofilms): support (improve) bacterial biofilm growth
- effect on bacterial and fungal biofilm (in words) [3]: promote bacterial and fungal biofilm

Compound: NC(=O)C[C@H](N)C(=O)O [Asparagine, L-asparagine]
- activation at 1 % (S. aureus biofilm [1]; [4]): 10 to 30%
- support (improve) bacterial biofilm growth (bacterial biofilms): support (improve) bacterial biofilm growth

Compound: NCCC(=O)O [Beta-Alanine, Beta-alanine]
- Reduce B Biofilm (S. aureus biofilm [1]; [4]): • (a single dot (●) signifies an effect in a range of about 10 to about 30% change)
- anti-biofilm properties against bacterial biofilms (bacterial biofilms): anti-biofilm properties against bacterial biofilms

Compound: NC(=O)NCCC[C@H](N)C(=O)O [Citrulline, L-citrulline]
- activation at 1 % (S. aureus biofilm [1]): 10 to 30%
- activation at 1 % (S. aureus biofilm [2]): 10 to 30%
- support (improve) bacterial biofilm growth (bacterial biofilms): support (improve) bacterial biofilm growth

Compound: NC(=O)CC[C@H](N)C(=O)O [Glutamine, L-glutamine]
- neutral, effect on bacterial or fungal biofilms [3]: no effect on bacterial or fungal biofilms

Compound: NCC(=O)O [Glycine, L-glycine]
- activation at 1 % (S. aureus biofilm [1]; [4]): 10 to 30%
- activation at 1 % (S. aureus biofilm [2]; [5]): 10 to 30%
- support (improve) bacterial biofilm growth (bacterial biofilms): support (improve) bacterial biofilm growth
- effect on bacterial and fungal biofilm (in words) [3]: promote bacterial and fungal biofilm

Compound: N[C@@H](Cc1c[nH]cn1)C(=O)O [Histidine, L-histidine]
- neutral, effect on bacterial or fungal biofilms [3]: no effect on bacterial or fungal biofilms

Compound: N[C@@H](CCS)C(=O)O [Homocysteine, L-homocysteine]
- anti-biofilm properties against fungal biofilms (fungal biofilms): anti-biofilm properties against fungal biofilms
- anti-biofilm properties against bacterial biofilms (bacterial biofilms): anti-biofilm properties against bacterial biofilms

Compound: CC[C@H](C)[C@H](N)C(=O)O [Isoleucine, L-isoleucine]
- activation at 1 % (S. aureus biofilm [2]; [5]): 10 to 30%
- support (improve) bacterial biofilm growth (bacterial biofilms): support (improve) bacterial biofilm growth
- effect on bacterial and fungal biofilm (in words) [3]: promote bacterial and fungal biofilm

Compound: CC(C)C[C@H](N)C(=O)O [Leucine, L-leucine]
- activation at 1 % (S. aureus biofilm [1]; [4]): 10 to 30%
- activation at 1 % (S. aureus biofilm [2]; [5]): 10 to 30%
- support (improve) bacterial biofilm growth (bacterial biofilms): support (improve) bacterial biofilm growth
- effect on bacterial and fungal biofilm (in words) [3]: promote bacterial and fungal biofilm

Compound: NCCCC[C@H](N)C(=O)O [Lysine, L-lysine]
- activation at 1 % (S. aureus biofilm [1]): 10 to 30%
- activation at 1 % (S. aureus biofilm [2]): 10 to 30%
- support (improve) bacterial biofilm growth (bacterial biofilms): support (improve) bacterial biofilm growth
- effect on bacterial and fungal biofilm (in words) [3]: promote bacterial and fungal biofilm

Compound: CSCC[C@H](N)C(=O)O [Methionine, L-methionine]
- activation at 1 % (S. aureus biofilm [1]; [4]): 10 to 30%
- support (improve) bacterial biofilm growth (bacterial biofilms): support (improve) bacterial biofilm growth
- effect on bacterial and fungal biofilm (in words) [3]: promote bacterial and fungal biofilm

Compound: NCCC[C@H](N)C(=O)O [Ornithine, L-ornithine]
- activation at 1 % (S. aureus biofilm [2]; [5]): 10 to 30%
- support (improve) bacterial biofilm growth (bacterial biofilms): support (improve) bacterial biofilm growth

Compound: N[C@@H](Cc1ccccc1)C(=O)O [Phenylalanine, L-phenylalanine]
- activation at 1 % (S. aureus biofilm [1]; [4]): 10 to 30%
- activation at 1 % (S. aureus biofilm [2]; [5]): 10 to 30%
- support (improve) bacterial biofilm growth (bacterial biofilms): support (improve) bacterial biofilm growth
- effect on bacterial and fungal biofilm (in words) [3]: promote bacterial and fungal biofilm

Compound: NCCOP(=O)(O)O [Phosphoethanolamine, O-phosphoethanolamine]
- Reduce B Biofilm (S. aureus biofilm [1]; [4]): • (a single dot (●) signifies an effect in a range of about 10 to about 30% change)
- inhibition at 1 % (S. aureus biofilm [2]; [5]): 10 to 30%
- anti-biofilm properties against bacterial biofilms (bacterial biofilms): anti-biofilm properties against bacterial biofilms

Compound: O=C(O)[C@@H]1CCCN1 [Proline, L-proline]
- activation at 1 % (S. aureus biofilm [2]; [5]): 10 to 30%
- support (improve) bacterial biofilm growth (bacterial biofilms): support (improve) bacterial biofilm growth
- effect on bacterial and fungal biofilm (in words) [3]: promote bacterial and fungal biofilm

Compound: N[C@@H](CO)C(=O)O [Serine, L-serine]
- activation at 1 % (S. aureus biofilm [1]; [4]): 10 to 30%
- activation at 1 % (S. aureus biofilm [2]; [5]): 10 to 30%
- support (improve) bacterial biofilm growth (bacterial biofilms): support (improve) bacterial biofilm growth
- effect on bacterial and fungal biofilm (in words) [3]: promote bacterial and fungal biofilm

Compound: NCCS(=O)(=O)O [Taurine, L-taurine]
- activation at 1 % (S. aureus biofilm [1]; [4]): 10 to 30%
- activation at 1 % (S. aureus biofilm [2]; [5]): 10 to 30%
- support (improve) bacterial biofilm growth (bacterial biofilms): support (improve) bacterial biofilm growth

Compound: C[C@@H](O)[C@H](N)C(=O)O [Threonine, L-threonine]
- activation at 1 % (S. aureus biofilm [1]; [4]): 10 to 30%
- support (improve) bacterial biofilm growth (bacterial biofilms): support (improve) bacterial biofilm growth
- effect on bacterial and fungal biofilm (in words) [3]: promote bacterial and fungal biofilm

Compound: N[C@@H](Cc1c[nH]c2ccccc12)C(=O)O [Tryptophan, L-tryptophan]
- activation at 1 % (S. aureus biofilm [1]): 10 to 30%
- support (improve) bacterial biofilm growth (bacterial biofilms): support (improve) bacterial biofilm growth
- effect on bacterial and fungal biofilm (in words) [3]: promote bacterial and fungal biofilm

Compound: N[C@@H](Cc1ccc(O)cc1)C(=O)O [Tyrosine, L-tyrosine]
- neutral, effect on bacterial or fungal biofilms [3]: no effect on bacterial or fungal biofilms
- effect on bacterial and fungal biofilm (in words) [3]: neutral effect on biofilm

Compound: OCC(O)CO [glycerol]
- effect on bacterial and fungal biofilm (in words) [3]: no measurable effect; also recorded: not found to have antibiofilm effect
